Measurements reported in article PMC10386709, “Preparation of Alcohol Dehydrogenase–Zinc Phosphate Hybrid Nanoflowers through Biomimetic Mineralization and Its Application in the Inhibitor Screening” (Molecules, 2023).

Experiments:
[1] = molecular target: T1, Alcohol dehydrogenase (ADH) (Saccharomyces cerevisiae, UniProt P00330); assay: NADH absorbance at […] nm, immobilized ADH nanoflowers, % inhibition at […] (weak); assay type: biochemical
T1 construct: gene ADH1
T1 sequence (P00330 2-348): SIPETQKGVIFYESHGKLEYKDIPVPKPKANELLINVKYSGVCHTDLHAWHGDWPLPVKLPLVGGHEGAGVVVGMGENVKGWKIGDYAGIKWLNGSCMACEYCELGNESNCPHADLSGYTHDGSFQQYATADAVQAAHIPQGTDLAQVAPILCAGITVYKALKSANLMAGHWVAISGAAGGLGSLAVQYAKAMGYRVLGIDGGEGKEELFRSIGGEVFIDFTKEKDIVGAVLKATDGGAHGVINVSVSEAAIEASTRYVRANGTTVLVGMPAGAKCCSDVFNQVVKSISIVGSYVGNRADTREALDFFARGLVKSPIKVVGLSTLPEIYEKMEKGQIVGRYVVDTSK

[2] = molecular target: T1, Alcohol dehydrogenase (ADH); assay: NADH absorbance at […] nm, immobilized ADH nanoflowers, % inhibition at […]; assay type: biochemical
[3] = molecular target: T1, Alcohol dehydrogenase (ADH); assay: NADH absorbance at […] nm, dose-response; free ADH (IC50 […] on immobilized ADH HNFs); assay type: biochemical
purified protein = substrate: NC(=O)c1ccc[n+]([C@@H]2O[C@H](COP(=O)([O-])OP(=O)(O)OC[C@H]3O[C@@H](n4cnc5c(N)ncnc54)[C@H](O)[C@@H]3O)[C@@H](O)[C@H]2O)c1; assay: purified protein; assay type: biochemical, Saccharomyces cerevisiae; settings: Zn2+

| Molecule | inhibition at 1500 µM ([2]; read-out: Inhibition (%)) [%] | inhibition at 1500 µM [2] [%] | also measured |
| --- | --- | --- | --- |
| Oc1cc(O)c2c(c1)O[C@H](c1ccc(O)c(O)c1)[C@@H](O)C2 [Cianidanol] | – | – | inhibition at 1500 µM [1]: 34.9 ± 4% |
| O=c1cc(-c2ccc(O)cc2)oc2cc(O)cc(O)c12 [apigenin] | 52.5 ± 5.5 | – | – |
| O=c1oc2c(O)c(O)cc3c(=O)oc4c(O)c(O)cc1c4c23 [ellagic acid] | 58.2 ± 10.3 | – | – |
| O=C(O)c1cc(O)c(O)c(O)c1 [gallic acid] | 61.9 ± 2.8 | – | – |
| O=C1C[C@@H](c2ccc(O)cc2)Oc2cc(O)cc(O)c21 [naringenin] | – | 75.5 ± 2.1 | – |
| O=C(O)c1ccc(O)c(O)c1 [protocatechuic acid] | – | 68.3 ± 2.9 | – |
| CNC(=C[N+](=O)[O-])NCCSCc1ccc(CN(C)C)o1 [ranitidine] | – | – | IC50 [3]: 390 µM |
| COc1cc(C(=O)O)ccc1O [vanillic acid] | – | 55.1 ± 1 | – |
| Alcohol dehydrogenase (ADH) (Saccharomyces cerevisiae S288C) (protein) SIPETQKGVIFYESHGKLEYKDIPVPKPKANELLINVKYSGVCHTDLHAWHGDWPLPVKLPLVGGHEGAGVVVGMGENVKGWKIGDYAGIKWLNGSCMACEYCELGNESNCPHADLSGYTHDGSFQQYATADAVQAAHIPQGTDLAQVAPILCAGITVYKALKSANLMAGHWVAISGAAGGLGSLAVQYAKAMGYRVLGIDGGEGKEELFRSIGGEVFIDFTKEKDIVGAVLKATDGGAHGVINVSVSEAAIEASTRYVRANGTTVLVGMPAGAKCCSDVFNQVVKSISIVGSYVGNRADTREALDFFARGLVKSPIKVVGLSTLPEIYEKMEKGQIVGRYVVDTSK | – | – | Km (purified protein): 5.33 mM |
